In patent US6060604A, “Pharmaceutical compounds comprising polyamines substituted with electron-affinic groups” (priority 1996, dated 2000):
Values joined by “and” are separate entries in the source; they are usually repeats but may differ in a detail not shown here. Equal entries are not always repeated. Structures can show the parent of a compound that is named as a salt.

Tests used:
hypoxic CHO cells [1] = assay: radiosensitizing potency on hypoxic CHO cells as a function of linker length (Table 3); format: cell-based, Chinese hamster; details: 8 Gy; for Sensitization Ratio at 20% Cell Survival Level: vs metronidazole, by linker (spacer chain) length
Protocol: The experiment shown in Table 3 is a later experiment which was conducted to determine the effect of the spacer chain (i.e., A) length. CHO cells were plated and allowed to attach to petri dishes for 3 h, then the media was replaced with 5 ml of Hank's Balanced Salt Solution with or without drugs. To induce cell hypoxia, the dishes were placed in sealed aluminum chambers which were degassed by pumping, and then back filled with 95% N2 /5% CO2. After 4 cycles, when the cells were severely hypoxic, the chambers were exposed to an X-ray beam generated by a General Electric Maxitron 300 therapy machine operated at 250 kVp and 20 mA (HVL 20 mm Al filter; dose rate at 2 Gy/min). The cells were cultured for 7 days in a 37° C. incubator and the resulting cell colonies were stained and counted.

CHO cells [2] = assay: thermo-radiosensitization of hypoxic CHO cells, colony forming assay (Table 4); format: cell-based, Chinese hamster; details: 41° C.; for combined drug/mild hyperthermia effect on radiosensitivity: hypoxic CHO cells; for Do: 30 min
Protocol: To examine the thermo-radiosensitizing effects of compounds (8) and (10), hypoxic CHO cells were irradiated (with or without drugs) with radiation doses ranging from 0-30 Gy. After irradiation, the chambers were placed either in a 37° C. or in a 41° C. water bath for 30 min. Then cell survival was evaluated by the colony forming assay.

CHO cells [3] = assay: radiosensitization potency on hypoxic CHO cells at 20% survival, single X ray dose 8 Gy (Table 2); format: cell-based, Chinese hamster; details: for IC80: Cricetulus griseus, CHO, read-out: drug molarity required to reduce cell survival to 20% of the untreated control value; for times more potent than metronidazole: hypoxic, 20% survival; for times more potent than metronidazole / Sensitization Ratio at 20% Survival Level: 8 Gy; for Sensitization Ratio at 20% Survival Level: vs metronidazole
Protocol: (§1) Cells were plated and allowed to attach on glass petri dishes for 3 h, then the media was replaced with 5 ml of Hank's balanced salt solution (HBSS) with or without drugs. To induce cell hypoxia, the dishes were placed at room temperature into sealed aluminum chambers (8 dishes/chamber). The chambers were degassed by pumping, and then back-filled with 95% N2 and 5% CO2. This procedure was repeated 4 times with 5 min holding periods under positive gas pressure between evacuations. After 1 h, when the cells were severely hypoxic, the chambers were placed in 37° C. water bath for 1 hr. For oxic treatment groups, cells were placed in 37° C. incubators for 2 h with 5 ml of HBSS (±drugs). The chambers were placed on a rotating table and exposed to an X-ray beam generated by a General Electric Maxitron 300 therapy machine operated at 250 kVp and 20 mA (HVL 20 mm Al filter; dose rate at 2 Gy/min). After irradiation, cells were rinsed with HBSS, and covered with fresh media. Cells were cultured for 7 days in a 37° C. incubator. The resulting cell colonies were stained and counted.
In the experiment shown in Table 2 hypoxic CHO cells were irradiated with a single X ray dose of 8 Gy, with or without drugs.

[4] = test system: Chinese hamster ovary (CHO) cells; assay: in vitro radiosensitization of hypoxic CHO cells, colony formation (Table 1); format: cell-based; details: drug dose 0.1 mM; for SFR (N2)(18 Gy), surviving fraction ratio: hypoxic
Protocol: as §1, with “The chambers were degassed by pumping, and then back-filled with 95% N2 and 5% CO2.” left out

mice [5] = assay: preliminary in vivo toxicity, intraperitoneal, mice
Protocol: In a preliminary in vivo study, two groups of mice were injected intraperitoneally with either 1 g/kg or 4 g/kg of DATM (formula 8).

hypoxic CHO cells [6] = assay: in vitro toxicity on hypoxic CHO cells, colony formation; format: cell-based, Chinese hamster; details: 0.2 mM, 12 hours at 37° C.
Protocol: Subsequently, hypoxic CHO cells were incubated with 0.2 mM DATM or 10 mM metro for 12 hours at 37° C.

hypoxic CHO cells [7] = assay: radiosensitizing hypoxic CHO cells, drugs given 2 hours at 4° C.; format: cell-based, Chinese hamster
[8] = as radiosensitizers; cited from earlier work
mice [9] = assay: later in vivo toxicity, oral, mice
H. pylori [10] = assay: modified bottle broth method, H. pylori growth inhibition; format: cell-based
[11] = test system: MTG-B mammary adenocarcinoma tumors; assay: in vivo radiosensitization of MTG-B mammary adenocarcinoma tumors in mice; design: species or system female C3H mice
Protocol: To determine whether the pronounced effects of DATM in tissue culture can be duplicated in solid tumors, in vivo studies were performed on mice bearing MTG-B mammary adenocarcinoma tumors. The tumors were grown subcutaneously in the right flank of 7-week old female C3H mice. When the tumor diameter reached 8 mm, 8-carbon DATM was administered to groups of mice either intraperitoneally or orally at 2 g/kg, and 2 or 4 h later the tumors were subjected to an X-ray dose of 22 Gy. Control mice bearing identical tumors were either left untreated or treated with radiation alone or drug alone. For irradiation, the mice were placed into lead holders with the tumor-bearing leg exposed. After treatment, the tumor diameters were measured daily by caliper and the time required for tumors to grow to twice their initial size was calculated as tumor doubling time (TDT), with the treatment day defined as Day 0 for all calculations and plots, The survival time for mice was also recorded in all treatment groups.
To evaluate radiosensitization at different radiation doses, additional experiments were carried out where mice receiving DATM (2 g/kg body weight, given orally) were exposed to different radiation doses (0, 12, 22, 32 Gy).
FIG. 10 compares the effectiveness of oral DATM (2 g/kg body weight) to that of a much smaller DATM dose (25 mg/kg body weight) injected directly into the tumor.

H. pylori [12] = assay: disk diffusion method, H. pylori growth inhibition; format: cell-based
H. pylori [13] = assay: agar dilution method, inhibition of H. pylori growth; format: cell-based, H. pylori strain ATCC43504
solubility in water = format: physicochemical; details: d-gluconic acid salt
Protocol: A solution of N, N, N', N'-tetra[2'-(2-methyl-5-nitro-1-imidazolyl)ethyl]-1,8-octanediamine free base was prepared by dissolving 0.5 g of N, N, N', N'-tetra[2'-(2-methyl-5-nitro-1-imidazolyl)ethyl]-1,8-octanediamine in 20 ml of CH2 Cl2. To this solution, 2 g of gluconic acid in 5 ml of water was added. To the resultant mixture, pure MeOH was added dropwise until the mixture became a homogeneous solution. To this, 50 ml of ether, followed by 200 ml of hexane were added to precipitate the solid. The reaction mixture was cooled to 4° C., and the precipitated salt was removed by filtration through a sintered glass funnel, washed with anhydrous ether and dried under vacuum.

[14] = DATM (2 g/kg, i.p. or oral) + radiation 22 Gy

Cc1ncc([N+](=O)[O-])n1CCN(CCCCCN(CCn1c([N+](=O)[O-])cnc1C)CCn1c([N+](=O)[O-])cnc1C)CCn1c([N+](=O)[O-])cnc1C [5-carbon DATM, N, N, N', N'-tetra[2'-(2-methyl-5-nitro-1-imidazolyl)ethyl]-1,5-pentanediamine]
Sensitization Ratio at 20% Cell Survival Level (hypoxic CHO cells [1]): 80

Cc1ncc([N+](=O)[O-])n1CCN(CCCCCCN(CCn1c([N+](=O)[O-])cnc1C)CCn1c([N+](=O)[O-])cnc1C)CCn1c([N+](=O)[O-])cnc1C [Linker Length 6]
Sensitization Ratio at 20% Cell Survival Level (hypoxic CHO cells [1]): 120

Cc1ncc([N+](=O)[O-])n1CCN(CCCCCN(CCn1c([N+](=O)[O-])cnc1C)CCn1c([N+](=O)[O-])cnc1C)CCn1c([N+](=O)[O-])cnc1C [Compound 10, N, N, N', N'-tetra[2'-(2-methyl-5-nitro-1-imidazolyl)ethyl]-1,5-pentanediamine]
combined drug/mild hyperthermia effect on radiosensitivity (CHO cells [2]): hypoxic cells become even more radiosensitive (smaller D0) than fully oxic cells
Do (CHO cells [2]; drug dose 10 μM): 0.6 Gy
IC80 (CHO cells [3]): 25 µM
times more potent than metronidazole (CHO cells [3]): 400 times
Sensitization Ratio at 20% Survival Level (CHO cells [3]): 400
Do [4]: 1.9 Gy
Ratio of RT Dose For 0.04 SF [4]: 1.5
SFR (N2)(18 Gy), surviving fraction ratio [4]: 21.4

Cc1ncc([N+](=O)[O-])n1CCN(CCCCN(CCn1c([N+](=O)[O-])cnc1C)CCn1c([N+](=O)[O-])cnc1C)CCn1c([N+](=O)[O-])cnc1C [Compound 8, N, N, N', N'-tetra [2'-(2-methyl-5-nitro-1-imidazolyl)ethyl]-1,4-butanediamine]
combined drug/mild hyperthermia effect on radiosensitivity (CHO cells [2]): hypoxic cells become even more radiosensitive (smaller D0) than fully oxic cells
Do (CHO cells [2]; drug dose 50 μM): 0.8 Gy
IC80 (CHO cells [3]): 200 µM
times more potent than metronidazole (CHO cells [3]): 50 times
Sensitization Ratio at 20% Survival Level (CHO cells [3]): 50
toxicity (mice [5]; 1 g/kg intraperitoneally, mice): No toxicity was observed
lethality (mice [5]; 4 g/kg intraperitoneally, mice): all mice of the 4 g/kg group died
toxicity compared to metro (mice [5]; same dosage): roughly comparable to that of metro for the same dosage
Do [4]: 2.5 Gy
Ratio of RT Dose For 0.04 SF [4]: 1.5
SFR (N2)(18 Gy), surviving fraction ratio [4]: 9.0
toxic effects on CHO cells (hypoxic CHO cells [6]): No toxic effects were noted
radiosensitizing effectiveness, 0.2 mM DATM vs 10 mM metro (hypoxic CHO cells [7]): equally effective

COCC(O)Cn1ccnc1[N+](=O)[O-] (centres unmarked) [misonidazole]
toxicity at therapeutic levels [8]: highly toxic at therapeutic levels

Cc1ncc([N+](=O)[O-])n1CCN(CCCCN(CCn1c([N+](=O)[O-])cnc1C)CCn1c([N+](=O)[O-])cnc1C)CCn1c([N+](=O)[O-])cnc1C [Linker Length 4, N, N, N', N'-tetra [2'-(2-methyl-5-nitro-1-imidazolyl)ethyl]-1,4-butanediamine]
times more potent/effective than metronidazole (hypoxic CHO cells [1]): 50 times
Sensitization Ratio at 20% Cell Survival Level (hypoxic CHO cells [1]): 50

Cc1ncc([N+](=O)[O-])n1CCN(CCCCCCCCN(CCn1c([N+](=O)[O-])cnc1C)CCn1c([N+](=O)[O-])cnc1C)CCn1c([N+](=O)[O-])cnc1C [8-carbon DATM, N, N, N', N'-tetra[2'(2-methyl-5-nitro-1-imidazolyl)ethyl]-1,8-octanediamine]
times less toxic to mice than metronidazole (mice [9]; oral): at least 5 times
toxicity (mice [9]; oral doses as high as 20 g/kg): no toxicity was observed
Sensitization Ratio at 20% Cell Survival Level (hypoxic CHO cells [1]): 510
ratio of the two MIC (metronidazole/DATM) (H. pylori [10]): 132.63
sensitization effect of intratumor injection vs intraperitoneal ([11]; 25 mg/kg intratumor vs 2 g/kg i.p., 22 Gy): same sensitization effect as 2 g/kg given intraperitoneally
effectiveness of intratumor injection vs oral ([11]; 25 mg/kg intratumor vs 2 g/kg oral): much more effective than oral drug administration
life span of tumor-bearing mice ([11]; 2 g/kg orally, radiation doses 0, 12, 22, 32 Gy): pronounced increase in the life span of tumor-bearing mice at all radiation doses studied
tumor doubling time (TDT) ([11]; 8-carbon DATM alone): 4 days
survival time of mice ([11]; 8-carbon DATM alone, 2 g/kg, no radiation): 13 to 15 days
increase of survival time [11, 14]: 157-179%
survival time [11, 14]: 36 days and 39 days
effectiveness in delaying tumor growth relative to radiation alone ([11]; DATM + radiation): ~3 times
tumor doubling time (TDT) ([11]; DATM + radiation): 18 days
effectiveness of oral vs intraperitoneal ([11]; equal drug dose, 22 Gy): slightly less effective than an equal drug dose administered intraperitoneally
times more potent than metronidazole in killing H. pylori (H. pylori [12]): 22.1 times
ratio of the MIC of metronidazole over that of DATM (H. pylori [13]): 35.37

Cc1ncc([N+](=O)[O-])n1CCN(CCCCCCCN(CCn1c([N+](=O)[O-])cnc1C)CCn1c([N+](=O)[O-])cnc1C)CCn1c([N+](=O)[O-])cnc1C [Linker Length 7]
Sensitization Ratio at 20% Cell Survival Level (hypoxic CHO cells [1]): 220

Cc1ncc([N+](=O)[O-])n1CCN(CCCCCCCCN(CCn1c([N+](=O)[O-])cnc1C)CCn1c([N+](=O)[O-])cnc1C)CCn1c([N+](=O)[O-])cnc1C [Example 5, N, N, N', N'-tetra[2'-(2-methyl-5-nitro-1-imidazolyl)ethyl]-1,8-octanediamine gluconic acid salt]
solubility in water (solubility in water): highly soluble in water
